Experimental data: ChEMBL document CHEMBL4507273 (2021)

Tests used:
[1] = target: Tyrosine-protein kinase SYK (Homo sapiens) (UniProt P43405); assay: Syk(h) Eurofins Kinase panel; settings: Compound concentration 1.0 uM
[2] = target: D(2) dopamine receptor (Homo sapiens, UniProt P14416); settings: Compound concentration 10.0 uM
[3] = target: T1, 5-hydroxytryptamine receptor 2C (Homo sapiens) (UniProt P28335); settings: Compound concentration 10.0 uM
T1 sequence (whole entry): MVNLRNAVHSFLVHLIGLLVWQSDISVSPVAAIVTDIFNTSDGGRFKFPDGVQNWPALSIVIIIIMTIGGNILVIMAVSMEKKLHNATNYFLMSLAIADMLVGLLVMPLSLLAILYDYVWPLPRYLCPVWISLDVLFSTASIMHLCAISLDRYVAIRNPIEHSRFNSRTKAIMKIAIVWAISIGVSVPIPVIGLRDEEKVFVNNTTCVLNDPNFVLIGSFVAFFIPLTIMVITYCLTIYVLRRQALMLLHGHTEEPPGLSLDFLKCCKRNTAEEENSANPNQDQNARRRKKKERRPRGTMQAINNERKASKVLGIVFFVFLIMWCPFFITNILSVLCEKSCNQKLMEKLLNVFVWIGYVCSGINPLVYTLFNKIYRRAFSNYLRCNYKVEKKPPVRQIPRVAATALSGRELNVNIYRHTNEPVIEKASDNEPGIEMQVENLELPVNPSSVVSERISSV

[4] = target: D(4) dopamine receptor (Homo sapiens, UniProt P21917); assay: GPCRScan assay: inhibition of D4; design: radioligand conc. used [nm] 0.6 – 1.7, parental cells Stable HEK
[5] = target: Vascular endothelial growth factor receptor 3 (Homo sapiens) (UniProt P35916); assay: Flt4(h) Eurofins Kinase panel; settings: Compound concentration 1.0 uM
[6] = target: Vascular endothelial growth factor receptor 1 (Homo sapiens) (UniProt P17948); assay: Flt1(h) Eurofins Kinase panel; settings: Compound concentration 1.0 uM
[7] = target: T2, Alpha-2B adrenergic receptor (Homo sapiens) (UniProt P18089); settings: Compound concentration 10.0 uM
T2 sequence (whole entry): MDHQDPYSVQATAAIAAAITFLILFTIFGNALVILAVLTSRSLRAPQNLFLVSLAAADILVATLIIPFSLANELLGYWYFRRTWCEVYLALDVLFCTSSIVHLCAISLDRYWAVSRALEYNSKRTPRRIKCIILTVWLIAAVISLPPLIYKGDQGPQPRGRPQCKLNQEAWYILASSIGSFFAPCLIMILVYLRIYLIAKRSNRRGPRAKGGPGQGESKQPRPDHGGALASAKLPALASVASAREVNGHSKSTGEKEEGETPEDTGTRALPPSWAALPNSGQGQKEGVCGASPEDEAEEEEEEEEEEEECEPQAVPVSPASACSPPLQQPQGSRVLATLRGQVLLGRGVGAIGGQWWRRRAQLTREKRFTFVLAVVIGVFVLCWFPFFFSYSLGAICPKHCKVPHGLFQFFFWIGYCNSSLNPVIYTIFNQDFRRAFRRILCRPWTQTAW

[8] = target: Proto-oncogene tyrosine-protein kinase receptor Ret (Homo sapiens) (UniProt P07949); assay: Ret(h) Eurofins Kinase panel; settings: Compound concentration 1.0 uM
[9] = target: T3, Alpha-2A adrenergic receptor (Homo sapiens) (UniProt P08913); settings: Compound concentration 10.0 uM
T3 sequence (whole entry): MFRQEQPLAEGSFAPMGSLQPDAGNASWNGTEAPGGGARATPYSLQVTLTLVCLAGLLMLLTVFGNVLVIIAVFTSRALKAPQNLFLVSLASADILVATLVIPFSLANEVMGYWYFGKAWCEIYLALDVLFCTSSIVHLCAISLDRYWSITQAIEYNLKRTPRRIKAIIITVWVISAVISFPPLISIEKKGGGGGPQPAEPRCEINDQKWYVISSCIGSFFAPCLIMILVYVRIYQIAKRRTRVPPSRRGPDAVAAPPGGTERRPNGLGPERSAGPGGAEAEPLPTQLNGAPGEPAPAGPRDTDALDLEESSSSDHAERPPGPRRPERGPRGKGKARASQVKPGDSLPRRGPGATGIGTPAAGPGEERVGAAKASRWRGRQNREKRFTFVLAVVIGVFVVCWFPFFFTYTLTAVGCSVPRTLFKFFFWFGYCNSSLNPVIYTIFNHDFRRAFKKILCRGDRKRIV

[10] = target: Tyrosine-protein kinase receptor UFO (Homo sapiens) (UniProt P30530); assay: Axl(h) Eurofins Kinase panel; settings: Compound concentration 1.0 uM
[11] = target: Eukaryotic translation initiation factor 2-alpha kinase 3 (Homo sapiens) (UniProt Q9NZJ5); assay: PEK(h) Eurofins Kinase panel; settings: Compound concentration 1.0 uM
[12] = target: Serine/threonine-protein kinase PAK 6 (Homo sapiens) (UniProt Q9NQU5); assay: PAK6(h) Eurofins Kinase panel; settings: Compound concentration 1.0 uM
[13] = target: Casein kinase II subunit alpha' (Homo sapiens) (UniProt P19784); assay: CK2alpha2(h) Eurofins Kinase panel; settings: Compound concentration 1.0 uM
[14] = target: BDNF/NT-3 growth factors receptor (Homo sapiens) (UniProt Q16620); assay: TrkB(h) Eurofins Kinase panel; settings: Compound concentration 1.0 uM
[15] = target: 5-hydroxytryptamine receptor 2B (Homo sapiens, UniProt P41595); settings: Compound concentration 10.0 uM
[16] = target: Leukocyte tyrosine kinase receptor (Homo sapiens) (UniProt P29376); assay: LTK(h) Eurofins Kinase panel; settings: Compound concentration 1.0 uM
[17] = target: T4, 5-hydroxytryptamine receptor 1A (Homo sapiens) (UniProt P08908); settings: Compound concentration 10.0 uM
T4 sequence (whole entry): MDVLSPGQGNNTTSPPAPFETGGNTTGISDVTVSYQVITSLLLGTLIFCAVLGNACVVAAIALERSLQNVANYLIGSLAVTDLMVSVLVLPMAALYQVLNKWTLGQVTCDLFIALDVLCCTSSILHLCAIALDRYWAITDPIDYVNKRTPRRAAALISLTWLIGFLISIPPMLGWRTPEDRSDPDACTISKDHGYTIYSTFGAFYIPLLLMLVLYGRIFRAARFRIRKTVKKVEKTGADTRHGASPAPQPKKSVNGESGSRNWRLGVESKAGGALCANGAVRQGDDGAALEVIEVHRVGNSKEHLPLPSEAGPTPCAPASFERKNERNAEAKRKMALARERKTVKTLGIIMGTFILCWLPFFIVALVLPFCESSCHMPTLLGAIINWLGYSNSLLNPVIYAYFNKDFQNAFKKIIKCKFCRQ

[18] = target: D(3) dopamine receptor (Homo sapiens, UniProt P35462); settings: Compound concentration 10.0 uM
[19] = target: Mu-type opioid receptor (Homo sapiens, UniProt P35372); settings: Compound concentration 10.0 uM
[20] = target: Delta-type opioid receptor (Homo sapiens) (UniProt P41143); settings: Compound concentration 10.0 uM
[21] = target: Histamine H4 receptor (Homo sapiens, UniProt Q9H3N8); assay: GPCRScan assay: inhibition of H4; design: radioligand conc. used [nm] 1.0 – 5.0, parental cells HEK T
[22] = target: Muscarinic acetylcholine receptor M4 (Homo sapiens, UniProt P08173); assay: GPCRScan assay: inhibition of M4; design: radioligand conc. used [nm] 0.3 – 1.0, parental cells stable CHO
Chain of Muscarinic acetylcholine receptor M4 (P08173 whole entry): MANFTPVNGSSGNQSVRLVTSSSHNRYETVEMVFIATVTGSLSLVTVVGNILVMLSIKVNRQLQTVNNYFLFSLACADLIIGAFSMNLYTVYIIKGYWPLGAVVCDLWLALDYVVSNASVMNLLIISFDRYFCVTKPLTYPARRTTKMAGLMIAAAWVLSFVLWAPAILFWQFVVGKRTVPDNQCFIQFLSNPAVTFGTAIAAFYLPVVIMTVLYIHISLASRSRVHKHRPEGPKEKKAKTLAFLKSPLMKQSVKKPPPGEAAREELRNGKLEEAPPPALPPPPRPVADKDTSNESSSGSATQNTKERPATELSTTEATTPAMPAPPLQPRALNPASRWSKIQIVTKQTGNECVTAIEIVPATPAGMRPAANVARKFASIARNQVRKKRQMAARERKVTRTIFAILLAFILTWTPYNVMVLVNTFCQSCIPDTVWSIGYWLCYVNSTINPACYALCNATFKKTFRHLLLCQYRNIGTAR

Chain of D(4) dopamine receptor (P21917 whole entry): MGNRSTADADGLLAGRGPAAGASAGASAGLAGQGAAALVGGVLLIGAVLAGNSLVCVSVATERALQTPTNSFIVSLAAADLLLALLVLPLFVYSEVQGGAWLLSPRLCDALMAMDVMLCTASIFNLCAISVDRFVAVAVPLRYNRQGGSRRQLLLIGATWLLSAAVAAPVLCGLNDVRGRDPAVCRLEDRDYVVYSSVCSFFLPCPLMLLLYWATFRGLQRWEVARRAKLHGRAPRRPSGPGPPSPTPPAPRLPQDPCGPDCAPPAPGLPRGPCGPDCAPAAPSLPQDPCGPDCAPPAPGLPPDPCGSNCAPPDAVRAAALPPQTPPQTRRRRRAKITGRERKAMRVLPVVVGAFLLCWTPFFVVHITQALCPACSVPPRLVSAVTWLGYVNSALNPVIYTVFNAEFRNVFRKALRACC
Chain of Proto-oncogene tyrosine-protein kinase receptor Ret (Homo sapiens) (P07949 whole entry): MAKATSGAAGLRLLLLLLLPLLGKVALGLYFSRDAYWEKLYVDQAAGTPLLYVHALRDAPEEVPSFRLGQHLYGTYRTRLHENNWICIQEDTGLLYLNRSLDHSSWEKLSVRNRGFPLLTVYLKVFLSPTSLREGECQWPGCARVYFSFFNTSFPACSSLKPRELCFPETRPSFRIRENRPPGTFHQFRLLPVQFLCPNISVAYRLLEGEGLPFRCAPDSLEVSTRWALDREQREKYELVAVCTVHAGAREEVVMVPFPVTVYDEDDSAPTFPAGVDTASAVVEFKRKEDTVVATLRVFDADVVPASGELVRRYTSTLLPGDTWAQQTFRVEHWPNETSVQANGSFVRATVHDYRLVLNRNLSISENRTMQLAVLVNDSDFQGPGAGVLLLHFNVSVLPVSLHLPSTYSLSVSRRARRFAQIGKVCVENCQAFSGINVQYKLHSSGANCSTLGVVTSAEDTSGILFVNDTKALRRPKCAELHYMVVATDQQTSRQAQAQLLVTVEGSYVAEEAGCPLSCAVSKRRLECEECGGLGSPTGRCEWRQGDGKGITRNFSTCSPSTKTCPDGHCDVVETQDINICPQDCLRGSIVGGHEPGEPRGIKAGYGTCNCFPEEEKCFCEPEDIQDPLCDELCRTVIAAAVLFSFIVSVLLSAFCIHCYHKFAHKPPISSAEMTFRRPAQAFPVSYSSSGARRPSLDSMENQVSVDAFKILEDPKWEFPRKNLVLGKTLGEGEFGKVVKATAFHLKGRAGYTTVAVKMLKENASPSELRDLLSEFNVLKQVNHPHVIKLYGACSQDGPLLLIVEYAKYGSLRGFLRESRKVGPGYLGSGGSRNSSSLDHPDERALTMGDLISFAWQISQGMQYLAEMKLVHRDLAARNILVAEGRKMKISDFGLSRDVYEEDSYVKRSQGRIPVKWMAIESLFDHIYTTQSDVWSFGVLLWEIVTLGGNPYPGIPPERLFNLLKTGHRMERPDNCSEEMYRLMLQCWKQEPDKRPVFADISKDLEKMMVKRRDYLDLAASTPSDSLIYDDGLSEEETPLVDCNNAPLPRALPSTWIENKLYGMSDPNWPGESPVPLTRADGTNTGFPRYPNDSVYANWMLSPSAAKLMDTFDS
Chain of D(3) dopamine receptor (P35462 whole entry): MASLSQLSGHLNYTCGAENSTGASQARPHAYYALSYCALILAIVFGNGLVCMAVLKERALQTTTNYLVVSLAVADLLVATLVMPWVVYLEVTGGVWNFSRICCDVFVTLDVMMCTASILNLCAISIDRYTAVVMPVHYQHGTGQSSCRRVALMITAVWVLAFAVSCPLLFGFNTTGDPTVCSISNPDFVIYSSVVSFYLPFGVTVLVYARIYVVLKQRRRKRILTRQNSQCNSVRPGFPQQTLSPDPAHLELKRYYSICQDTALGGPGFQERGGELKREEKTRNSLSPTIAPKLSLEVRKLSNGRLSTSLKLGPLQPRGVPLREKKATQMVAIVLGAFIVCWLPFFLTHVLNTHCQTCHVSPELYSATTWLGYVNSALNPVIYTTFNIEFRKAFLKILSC
Chain of D(2) dopamine receptor (P14416 whole entry): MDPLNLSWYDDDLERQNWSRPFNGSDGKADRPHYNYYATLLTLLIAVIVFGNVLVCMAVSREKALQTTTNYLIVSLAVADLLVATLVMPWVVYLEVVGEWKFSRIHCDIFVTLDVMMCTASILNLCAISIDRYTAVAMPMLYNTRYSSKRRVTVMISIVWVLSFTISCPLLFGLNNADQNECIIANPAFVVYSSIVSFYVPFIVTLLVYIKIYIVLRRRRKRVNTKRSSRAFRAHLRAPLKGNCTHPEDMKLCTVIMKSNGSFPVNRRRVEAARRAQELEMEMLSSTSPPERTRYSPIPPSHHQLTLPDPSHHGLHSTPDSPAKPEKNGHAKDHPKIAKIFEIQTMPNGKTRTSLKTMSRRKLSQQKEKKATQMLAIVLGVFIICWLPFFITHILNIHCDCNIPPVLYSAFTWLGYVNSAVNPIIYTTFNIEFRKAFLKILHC
Chain of Casein kinase II subunit alpha' (Homo sapiens) (P19784 whole entry, looked up): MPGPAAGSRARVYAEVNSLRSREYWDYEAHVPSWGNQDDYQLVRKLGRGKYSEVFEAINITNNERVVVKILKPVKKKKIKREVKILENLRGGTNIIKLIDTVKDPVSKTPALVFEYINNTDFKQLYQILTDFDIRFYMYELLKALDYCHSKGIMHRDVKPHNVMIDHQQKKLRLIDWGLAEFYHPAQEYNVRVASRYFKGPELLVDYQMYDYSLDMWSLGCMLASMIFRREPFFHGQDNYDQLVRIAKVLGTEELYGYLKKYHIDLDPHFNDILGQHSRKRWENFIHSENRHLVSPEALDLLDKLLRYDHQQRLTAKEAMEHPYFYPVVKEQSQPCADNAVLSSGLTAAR
Chain of BDNF/NT-3 growth factors receptor (Homo sapiens) (Q16620 32-822 limits assumed): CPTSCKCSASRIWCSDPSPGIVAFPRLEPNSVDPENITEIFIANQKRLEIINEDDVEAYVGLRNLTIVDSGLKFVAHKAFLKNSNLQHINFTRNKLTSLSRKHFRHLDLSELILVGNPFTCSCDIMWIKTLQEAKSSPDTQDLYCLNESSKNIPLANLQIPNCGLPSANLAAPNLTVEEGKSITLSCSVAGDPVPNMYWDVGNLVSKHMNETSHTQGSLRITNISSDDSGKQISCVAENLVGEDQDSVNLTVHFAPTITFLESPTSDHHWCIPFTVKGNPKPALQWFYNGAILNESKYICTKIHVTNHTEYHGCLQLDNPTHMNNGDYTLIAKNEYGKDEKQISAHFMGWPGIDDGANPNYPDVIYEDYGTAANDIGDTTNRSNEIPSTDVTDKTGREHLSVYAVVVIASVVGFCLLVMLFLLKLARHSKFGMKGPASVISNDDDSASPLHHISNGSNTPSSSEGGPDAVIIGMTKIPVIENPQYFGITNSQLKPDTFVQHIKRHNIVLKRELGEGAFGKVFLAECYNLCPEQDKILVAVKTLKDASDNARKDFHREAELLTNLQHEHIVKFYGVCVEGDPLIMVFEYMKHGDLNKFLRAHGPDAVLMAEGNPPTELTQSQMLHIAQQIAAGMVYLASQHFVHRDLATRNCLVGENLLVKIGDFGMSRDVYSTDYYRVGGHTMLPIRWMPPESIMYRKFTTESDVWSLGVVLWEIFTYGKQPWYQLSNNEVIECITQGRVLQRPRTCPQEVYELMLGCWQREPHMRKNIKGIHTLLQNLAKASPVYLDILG
Chain of 5-hydroxytryptamine receptor 2B (P41595 whole entry): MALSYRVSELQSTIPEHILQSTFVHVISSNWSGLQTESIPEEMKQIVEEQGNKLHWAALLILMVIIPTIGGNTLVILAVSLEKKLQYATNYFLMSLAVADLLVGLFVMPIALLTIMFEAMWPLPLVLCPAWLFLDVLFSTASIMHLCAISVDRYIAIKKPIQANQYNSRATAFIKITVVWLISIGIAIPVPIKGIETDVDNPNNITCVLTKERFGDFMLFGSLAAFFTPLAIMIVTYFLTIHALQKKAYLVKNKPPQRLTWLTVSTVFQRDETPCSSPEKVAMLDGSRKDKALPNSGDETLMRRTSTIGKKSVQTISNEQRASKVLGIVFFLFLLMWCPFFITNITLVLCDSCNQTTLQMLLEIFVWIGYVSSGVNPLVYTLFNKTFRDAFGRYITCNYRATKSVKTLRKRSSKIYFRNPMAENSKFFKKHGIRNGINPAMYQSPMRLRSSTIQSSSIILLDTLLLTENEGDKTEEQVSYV
Chain of Delta-type opioid receptor (Homo sapiens) (P41143 whole entry): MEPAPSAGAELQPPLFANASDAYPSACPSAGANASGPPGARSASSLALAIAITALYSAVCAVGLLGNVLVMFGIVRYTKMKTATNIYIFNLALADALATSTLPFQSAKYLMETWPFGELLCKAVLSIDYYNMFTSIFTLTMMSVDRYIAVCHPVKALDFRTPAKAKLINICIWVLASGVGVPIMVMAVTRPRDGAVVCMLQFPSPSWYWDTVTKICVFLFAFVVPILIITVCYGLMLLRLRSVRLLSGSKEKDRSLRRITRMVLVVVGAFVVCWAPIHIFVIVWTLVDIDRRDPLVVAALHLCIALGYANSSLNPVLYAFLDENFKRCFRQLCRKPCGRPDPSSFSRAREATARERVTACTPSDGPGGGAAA

CNCc1ccccc1-c1csc([C@@H](C)Nc2nc(C)nc3cc(OC)c(OC)cc23)c1 [BAY-293]
inactive: % residual kinase activity [1] 79% | % residual kinase activity [5] 82% | % residual kinase activity [6] 88% | % residual kinase activity [8] 81% | % residual kinase activity [10] 88% | % residual kinase activity [11] 87% | % residual kinase activity [12] 88% | % residual kinase activity [13] 67% | % residual kinase activity [14] 79% | % residual kinase activity [16] 75%
active: inhibition [2] 71% | inhibition [3] 104% | inhibition [7] 85% | inhibition [9] 99% | inhibition [15] 100% | inhibition [17] 81% | inhibition [18] 88% | inhibition [19] 93%
2630 nM: Ki ([4]; read-out: pKi (converted))
2660 nM: Ki ([4]; read-out: Ki)

CNCc1ccccc1-c1csc([C@H](C)Nc2nc(C)nc3cc(OC)c(OC)cc23)c1 [BAY-294]
inactive: inhibition [20] 10.5%
303 nM: Ki ([22]; read-out: Ki)
292 nM: Ki ([22]; read-out: pKi (converted))
1890 nM: Ki [21]
